For 24 compounds, AC50 results are on record in ChEMBL document CHEMBL5291721, “A preclinical secondary pharmacology resource illuminates target-adverse drug reaction associations of marketed drugs” (Nat Commun, 2023).

The target in one assay is D(1A) dopamine receptor (Homo sapiens, UniProt P21728). Type of assay: functional, cell-based.
Assay [1] has as its target 5-hydroxytryptamine receptor 2B (Homo sapiens, UniProt P41595). It is filed as functional, cell-based.
Assay [2] addresses Kappa-type opioid receptor (Homo sapiens, UniProt P41145).
Assay [3] addresses Vascular endothelial growth factor receptor 2 (Homo sapiens, UniProt P35968). It is filed as functional.
The target in another assay is T1, Thromboxane A2 receptor (Homo sapiens, UniProt P21731).
T1 sequence (P21731 whole entry): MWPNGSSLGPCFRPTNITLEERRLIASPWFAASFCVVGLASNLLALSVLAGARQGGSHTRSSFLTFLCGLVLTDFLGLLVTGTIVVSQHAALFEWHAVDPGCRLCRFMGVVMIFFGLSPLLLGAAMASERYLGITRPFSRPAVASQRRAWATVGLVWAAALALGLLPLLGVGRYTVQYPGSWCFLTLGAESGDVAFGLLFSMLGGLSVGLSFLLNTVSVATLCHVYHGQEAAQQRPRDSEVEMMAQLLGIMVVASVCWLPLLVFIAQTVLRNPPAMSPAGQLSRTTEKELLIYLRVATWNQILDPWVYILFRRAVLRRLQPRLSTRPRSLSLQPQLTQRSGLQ

Another assay concerns the target T2, B2 bradykinin receptor (Homo sapiens, UniProt P30411).
T2 sequence (P30411 whole entry): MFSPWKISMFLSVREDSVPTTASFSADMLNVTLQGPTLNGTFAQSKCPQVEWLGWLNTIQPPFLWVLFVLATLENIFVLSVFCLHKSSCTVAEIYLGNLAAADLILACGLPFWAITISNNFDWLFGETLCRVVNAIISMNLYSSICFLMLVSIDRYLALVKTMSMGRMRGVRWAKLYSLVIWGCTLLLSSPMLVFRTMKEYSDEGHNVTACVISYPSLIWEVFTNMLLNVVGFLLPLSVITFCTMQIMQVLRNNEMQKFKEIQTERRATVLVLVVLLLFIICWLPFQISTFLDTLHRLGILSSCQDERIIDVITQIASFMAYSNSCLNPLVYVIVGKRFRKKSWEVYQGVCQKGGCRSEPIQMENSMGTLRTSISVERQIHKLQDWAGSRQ

Assay [4] concerns the target T3, Alpha-1A adrenergic receptor (Homo sapiens, UniProt P35348).
T3 sequence (P35348 whole entry): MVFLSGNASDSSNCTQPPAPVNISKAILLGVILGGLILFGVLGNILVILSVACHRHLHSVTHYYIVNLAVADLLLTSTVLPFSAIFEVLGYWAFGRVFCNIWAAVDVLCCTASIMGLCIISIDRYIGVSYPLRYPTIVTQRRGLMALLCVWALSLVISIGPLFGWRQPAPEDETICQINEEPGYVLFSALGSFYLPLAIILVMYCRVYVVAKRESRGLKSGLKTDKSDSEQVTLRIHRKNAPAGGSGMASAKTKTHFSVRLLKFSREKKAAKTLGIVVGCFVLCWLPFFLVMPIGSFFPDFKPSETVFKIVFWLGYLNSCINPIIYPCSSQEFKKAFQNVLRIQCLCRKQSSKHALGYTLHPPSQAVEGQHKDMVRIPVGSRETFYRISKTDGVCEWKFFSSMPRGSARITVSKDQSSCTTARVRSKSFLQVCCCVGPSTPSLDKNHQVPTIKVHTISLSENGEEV
It is filed as functional, cell-based.

The target in another assay is Vasopressin V1a receptor (Homo sapiens, UniProt P37288).
Assay [5] addresses Beta-2 adrenergic receptor (Homo sapiens, UniProt P07550).
A further assay addresses Adenosine receptor A2a (Homo sapiens, UniProt P29274).
The target of assay [6] is T4, Gastrin/cholecystokinin type B receptor (Homo sapiens, UniProt P32239).
T4 sequence (P32239 whole entry): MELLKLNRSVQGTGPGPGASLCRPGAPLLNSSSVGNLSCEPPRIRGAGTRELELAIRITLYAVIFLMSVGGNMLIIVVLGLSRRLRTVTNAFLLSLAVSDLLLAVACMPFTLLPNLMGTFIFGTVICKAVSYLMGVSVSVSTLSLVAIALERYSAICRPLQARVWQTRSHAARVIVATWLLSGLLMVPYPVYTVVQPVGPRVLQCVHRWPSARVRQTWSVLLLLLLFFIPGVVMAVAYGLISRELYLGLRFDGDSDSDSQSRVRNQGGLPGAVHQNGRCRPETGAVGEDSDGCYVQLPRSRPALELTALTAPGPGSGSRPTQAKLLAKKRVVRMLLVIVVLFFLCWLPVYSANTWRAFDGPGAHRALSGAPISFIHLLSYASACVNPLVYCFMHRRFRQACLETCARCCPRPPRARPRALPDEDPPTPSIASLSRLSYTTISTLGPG

The next assay addresses T5, Adenosine receptor A3 (Homo sapiens, UniProt P0DMS8).
T5 sequence (P0DMS8 whole entry): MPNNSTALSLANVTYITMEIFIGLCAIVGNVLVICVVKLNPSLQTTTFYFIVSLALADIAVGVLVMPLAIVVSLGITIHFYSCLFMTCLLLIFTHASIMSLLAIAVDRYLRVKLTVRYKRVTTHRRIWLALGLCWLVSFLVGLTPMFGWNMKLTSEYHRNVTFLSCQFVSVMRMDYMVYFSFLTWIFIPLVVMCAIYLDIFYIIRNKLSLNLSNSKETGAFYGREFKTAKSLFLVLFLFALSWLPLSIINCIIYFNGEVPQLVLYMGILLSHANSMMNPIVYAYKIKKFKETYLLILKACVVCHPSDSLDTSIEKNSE

For assay [7], the target named is T6, Muscarinic acetylcholine receptor M2 (Homo sapiens, UniProt P08172).
T6 sequence (P08172 whole entry): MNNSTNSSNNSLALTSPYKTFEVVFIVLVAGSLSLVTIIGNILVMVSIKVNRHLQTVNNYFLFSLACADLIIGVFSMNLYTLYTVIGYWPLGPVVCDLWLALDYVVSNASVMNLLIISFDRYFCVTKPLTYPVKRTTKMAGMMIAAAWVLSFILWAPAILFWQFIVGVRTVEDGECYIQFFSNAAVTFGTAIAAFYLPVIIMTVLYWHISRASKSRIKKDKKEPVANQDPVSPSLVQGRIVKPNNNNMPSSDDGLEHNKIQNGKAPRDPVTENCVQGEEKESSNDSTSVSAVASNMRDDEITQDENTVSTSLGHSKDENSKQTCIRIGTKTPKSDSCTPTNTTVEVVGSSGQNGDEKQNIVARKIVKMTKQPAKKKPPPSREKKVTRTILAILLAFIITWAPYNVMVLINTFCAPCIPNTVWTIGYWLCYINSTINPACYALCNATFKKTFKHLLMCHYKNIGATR
Type of assay: functional, cell-based.

SMILES strings stand for the structures.
Also: assay procedure not described here.

Chain of D(1A) dopamine receptor (P21728 whole entry): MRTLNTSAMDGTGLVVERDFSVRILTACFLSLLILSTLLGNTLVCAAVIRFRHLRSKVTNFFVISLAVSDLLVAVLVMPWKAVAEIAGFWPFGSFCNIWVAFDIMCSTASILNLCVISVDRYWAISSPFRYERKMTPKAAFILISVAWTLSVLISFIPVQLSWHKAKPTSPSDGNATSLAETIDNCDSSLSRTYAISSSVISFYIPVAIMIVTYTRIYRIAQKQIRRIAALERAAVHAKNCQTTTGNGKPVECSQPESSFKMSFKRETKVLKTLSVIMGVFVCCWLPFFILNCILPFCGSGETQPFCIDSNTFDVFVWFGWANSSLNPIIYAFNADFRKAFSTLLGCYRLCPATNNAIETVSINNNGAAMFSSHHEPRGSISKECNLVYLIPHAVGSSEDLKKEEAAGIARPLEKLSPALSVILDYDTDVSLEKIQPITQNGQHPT
Chain of 5-hydroxytryptamine receptor 2B (P41595 whole entry): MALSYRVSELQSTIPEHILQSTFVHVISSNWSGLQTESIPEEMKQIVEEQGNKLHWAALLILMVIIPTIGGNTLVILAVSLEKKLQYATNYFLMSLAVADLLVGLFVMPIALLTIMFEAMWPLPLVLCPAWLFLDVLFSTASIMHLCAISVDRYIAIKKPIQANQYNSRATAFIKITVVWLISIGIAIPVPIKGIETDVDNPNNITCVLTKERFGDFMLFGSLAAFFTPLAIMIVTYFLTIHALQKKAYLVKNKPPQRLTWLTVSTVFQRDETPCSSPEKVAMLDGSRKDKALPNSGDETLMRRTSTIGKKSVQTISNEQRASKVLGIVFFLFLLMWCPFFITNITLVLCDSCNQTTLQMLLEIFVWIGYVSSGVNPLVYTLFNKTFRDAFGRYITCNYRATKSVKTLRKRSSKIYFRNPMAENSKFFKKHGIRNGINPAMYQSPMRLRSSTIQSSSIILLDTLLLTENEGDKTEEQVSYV
Chain of Kappa-type opioid receptor (P41145 whole entry): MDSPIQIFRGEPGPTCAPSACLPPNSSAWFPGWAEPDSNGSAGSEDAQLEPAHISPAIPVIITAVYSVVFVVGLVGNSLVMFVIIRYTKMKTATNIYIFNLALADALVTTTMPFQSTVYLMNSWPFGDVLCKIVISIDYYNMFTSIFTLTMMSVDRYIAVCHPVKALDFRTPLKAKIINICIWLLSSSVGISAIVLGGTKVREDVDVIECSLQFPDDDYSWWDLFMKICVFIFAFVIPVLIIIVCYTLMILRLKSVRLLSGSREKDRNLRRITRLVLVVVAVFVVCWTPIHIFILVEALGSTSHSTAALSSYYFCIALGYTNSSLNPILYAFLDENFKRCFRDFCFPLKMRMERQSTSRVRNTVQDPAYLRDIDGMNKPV
Chain of Adenosine receptor A2a (P29274 whole entry): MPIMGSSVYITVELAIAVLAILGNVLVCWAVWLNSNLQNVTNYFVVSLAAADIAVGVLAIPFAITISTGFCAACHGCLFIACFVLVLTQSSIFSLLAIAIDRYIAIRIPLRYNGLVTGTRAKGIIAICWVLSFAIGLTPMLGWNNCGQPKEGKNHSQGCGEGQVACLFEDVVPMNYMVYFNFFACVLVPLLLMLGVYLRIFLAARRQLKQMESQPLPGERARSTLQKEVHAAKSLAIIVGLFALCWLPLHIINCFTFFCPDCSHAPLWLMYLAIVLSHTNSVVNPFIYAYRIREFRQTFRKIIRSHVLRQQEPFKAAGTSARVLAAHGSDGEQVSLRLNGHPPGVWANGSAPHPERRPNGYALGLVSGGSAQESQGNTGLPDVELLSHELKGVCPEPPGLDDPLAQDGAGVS
Chain of Beta-2 adrenergic receptor (P07550 whole entry): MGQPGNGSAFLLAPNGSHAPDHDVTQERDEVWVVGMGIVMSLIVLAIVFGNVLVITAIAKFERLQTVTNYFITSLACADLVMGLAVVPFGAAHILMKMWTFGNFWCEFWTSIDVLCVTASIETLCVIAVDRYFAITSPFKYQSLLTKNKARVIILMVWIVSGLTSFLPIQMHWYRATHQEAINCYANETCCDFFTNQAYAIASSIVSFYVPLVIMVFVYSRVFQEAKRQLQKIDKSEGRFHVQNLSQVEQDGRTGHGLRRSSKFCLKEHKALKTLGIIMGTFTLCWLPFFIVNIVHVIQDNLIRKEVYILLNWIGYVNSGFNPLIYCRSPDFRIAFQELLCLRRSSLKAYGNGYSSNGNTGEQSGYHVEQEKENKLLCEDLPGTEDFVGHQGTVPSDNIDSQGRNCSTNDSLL
Chain of Vasopressin V1a receptor (P37288 whole entry): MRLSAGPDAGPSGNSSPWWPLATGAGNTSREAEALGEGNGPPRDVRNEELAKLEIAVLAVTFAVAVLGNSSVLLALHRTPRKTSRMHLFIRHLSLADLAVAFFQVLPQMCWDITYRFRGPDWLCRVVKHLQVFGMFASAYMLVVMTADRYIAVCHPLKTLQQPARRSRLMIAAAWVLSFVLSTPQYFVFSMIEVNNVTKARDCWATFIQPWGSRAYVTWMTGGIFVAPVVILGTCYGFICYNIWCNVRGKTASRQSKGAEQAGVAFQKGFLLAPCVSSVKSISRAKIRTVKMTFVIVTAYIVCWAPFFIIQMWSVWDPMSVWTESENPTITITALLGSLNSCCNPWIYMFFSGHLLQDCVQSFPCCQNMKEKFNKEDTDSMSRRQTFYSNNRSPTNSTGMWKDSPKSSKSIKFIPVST
Chain of Vascular endothelial growth factor receptor 2 (P35968 whole entry): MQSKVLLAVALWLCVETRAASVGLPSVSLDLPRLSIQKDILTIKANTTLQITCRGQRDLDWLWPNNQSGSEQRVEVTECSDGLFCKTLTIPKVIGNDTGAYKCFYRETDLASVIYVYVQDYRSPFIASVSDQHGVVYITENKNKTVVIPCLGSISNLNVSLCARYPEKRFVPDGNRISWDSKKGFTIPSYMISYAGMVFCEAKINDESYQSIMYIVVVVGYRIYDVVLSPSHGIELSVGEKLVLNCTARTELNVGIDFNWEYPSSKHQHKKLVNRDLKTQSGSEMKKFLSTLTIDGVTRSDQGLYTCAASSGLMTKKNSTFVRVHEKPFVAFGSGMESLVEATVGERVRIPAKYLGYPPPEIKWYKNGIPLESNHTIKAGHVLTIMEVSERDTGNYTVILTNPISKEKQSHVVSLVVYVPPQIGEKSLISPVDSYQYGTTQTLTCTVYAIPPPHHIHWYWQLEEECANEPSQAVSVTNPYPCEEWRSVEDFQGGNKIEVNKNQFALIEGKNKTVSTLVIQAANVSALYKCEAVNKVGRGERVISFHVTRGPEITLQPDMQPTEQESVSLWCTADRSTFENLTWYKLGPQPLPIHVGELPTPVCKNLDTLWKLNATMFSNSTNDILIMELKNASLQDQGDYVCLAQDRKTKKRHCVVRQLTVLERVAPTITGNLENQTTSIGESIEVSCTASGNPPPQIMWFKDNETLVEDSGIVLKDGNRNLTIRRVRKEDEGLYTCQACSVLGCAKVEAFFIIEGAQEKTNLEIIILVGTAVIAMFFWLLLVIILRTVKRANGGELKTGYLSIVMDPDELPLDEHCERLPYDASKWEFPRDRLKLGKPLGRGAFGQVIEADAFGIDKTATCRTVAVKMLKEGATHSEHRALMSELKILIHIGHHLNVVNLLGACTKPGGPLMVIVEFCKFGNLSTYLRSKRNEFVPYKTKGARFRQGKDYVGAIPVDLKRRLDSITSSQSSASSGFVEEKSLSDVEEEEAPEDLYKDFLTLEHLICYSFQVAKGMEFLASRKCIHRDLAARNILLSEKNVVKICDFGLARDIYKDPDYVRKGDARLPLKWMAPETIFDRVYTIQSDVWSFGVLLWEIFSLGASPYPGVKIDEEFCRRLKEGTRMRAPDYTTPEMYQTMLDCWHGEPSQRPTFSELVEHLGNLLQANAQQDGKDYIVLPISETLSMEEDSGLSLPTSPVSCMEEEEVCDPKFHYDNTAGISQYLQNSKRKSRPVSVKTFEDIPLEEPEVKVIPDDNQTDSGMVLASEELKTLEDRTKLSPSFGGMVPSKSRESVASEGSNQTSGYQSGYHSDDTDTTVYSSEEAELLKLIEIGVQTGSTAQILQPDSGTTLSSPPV

On to `CCCc1nc2c(C)cc(-c3nc4ccccc4n3C)cc2n1Cc1ccc(-c2ccccc2C(=O)O)cc1`, for which the AC50 was more than 30 µM at D(1A) dopamine receptor; 6.33 µM in [1]; more than 30 µM in assay [2]; more than 10 µM in [3]; 18.1 µM at Thromboxane A2 receptor; more than 30 µM at B2 bradykinin receptor. Besides, the AC50 in [4] was more than 30 µM; at Vasopressin V1a receptor it was more than 30 µM; in assay [5], more than 30 µM; at Adenosine receptor A2a it was more than 30 µM; in [6], more than 30 µM; at Adenosine receptor A3, 18.3 µM. The AC50 in [7] worked out at 5.16 µM.
Take `Cc1cc(C2CCCCC2)n(O)c(=O)c1` [CICLOPIROX]: the AC50 (in assay [3]; in assay [4]; on Adenosine receptor A2a; at Adenosine receptor A3; in [7]) was more than 30 µM each time.
In the case of `O=C(O)Cc1ccccc1Nc1c(Cl)cccc1Cl` [DICLOFENAC], the AC50 was more than 10 µM on D(1A) dopamine receptor; more than 10 µM in [1]; more than 10 µM in [2]; more than 3 µM in [3]; more than 30 µM at Thromboxane A2 receptor; more than 30 µM at B2 bradykinin receptor. Moreover, the AC50 is more than 30 µM in assay [4]; more than 30 µM at Vasopressin V1a receptor; more than 10 µM in assay [5]; more than 30 µM at Adenosine receptor A2a; more than 30 µM in assay [6]; more than 30 µM at Adenosine receptor A3. The same compound yielded an AC50 in assay [7] of more than 10 µM.
Turning to `O=C(O)Cc1ccccc1Oc1ccc(Cl)cc1Cl` [FENCLOFENAC], the half-maximal activity concentration (AC50) on D(1A) dopamine receptor is more than 30 µM; in assay [1] it was more than 10 µM; in assay [2], more than 10 µM; in assay [3], more than 30 µM; at Thromboxane A2 receptor, more than 30 µM; on B2 bradykinin receptor, more than 30 µM. Further, the AC50 in assay [4] was more than 30 µM; on Vasopressin V1a receptor it was more than 10 µM; in assay [5] it was more than 10 µM; on Adenosine receptor A2a it was more than 30 µM; in [6], more than 30 µM; at Adenosine receptor A3, more than 30 µM. Further, the AC50 in assay [7] is more than 10 µM.
On to `Cc1ccc(C)c(OCCCC(C)(C)C(=O)O)c1` [GEMFIBROZIL], for which the concentration at half-maximal activity (AC50) is more than 10 µM on D(1A) dopamine receptor; 4.4 µM in [1]; more than 10 µM in [2]; more than 30 µM in assay [3]; more than 30 µM at Thromboxane A2 receptor; more than 30 µM on B2 bradykinin receptor. The AC50 in assay [4] is more than 30 µM; on Vasopressin V1a receptor, more than 10 µM; in assay [5], more than 10 µM; on Adenosine receptor A2a it was more than 30 µM; in assay [6] it was more than 30 µM; at Adenosine receptor A3, more than 30 µM. In assay [7], the AC50 is more than 10 µM.
In [3], `C=N[C@@H](C(=O)N[C@@H]1C(=O)N2[C@@H]1SC(C)(C)[C@@H]2C(=O)O)c1ccccc1` [METAMPICILLIN] had a half-maximal activity concentration (AC50) of more than 30 µM.
Same read-out and setting: the result for `O=C(NNCS(=O)(=O)O)c1ccncc1` [METHANIAZIDE] reads more than 30 µM; that for `Cc1cc(=O)[nH]c(=S)[nH]1` [METHYLTHIOURACIL], more than 30 µM.
For the compound `CN(C)c1ccc(O)c2c1C[C@H]1C[C@H]3[C@H](N(C)C)C(O)=C(C(N)=O)C(=O)[C@@]3(O)C(O)=C1C2=O` [MINOCYCLINE], the half-maximal activity concentration (AC50) in [3] was more than 30 µM.
For the compound `CCNC(=O)/C=C(C)/C=C/C=C(C)/C=C/c1c(C)cc(OC)c(C)c1C` [MOTRETINIDE], in assay [3], the concentration at half-maximal activity (AC50) was more than 30 µM.
Still for that read-out and setting: the result for `C=CC(=O)Nc1cccc(Oc2nc(Nc3ccc(N4CCN(C)CC4)cc3)nc3ccsc23)c1` [OLMUTINIB] reads 2.06 µM; that for `COc1ccc2[nH]c([S+]([O-])Cc3ncc(C)c(OC)c3C)nc2c1` (stereo unspecified) [OMEPRAZOLE], more than 30 µM.
For `CCCCC1C(=O)N(c2ccccc2)N(c2ccc(O)cc2)C1=O` (stereo unspecified) [OXYPHENBUTAZONE ANHYDROUS], the AC50 in assay [3] is more than 30 µM.
The compound `O=C(O)CN(CCN(CC(=O)O)CC(=O)O)CCN(CC(=O)O)CC(=O)O` [PENTETIC ACID] yielded an AC50 in [3] of more than 30 µM.
Consider `Nc1cccc2c1C(=O)N(C1CCC(=O)NC1=O)C2=O` (stereo unspecified) [POMALIDOMIDE], for which the AC50 in assay [3] is more than 30 µM.
The same measure, in the same setting: the result for `C[Se]CC[C@H](N)C(=O)O` [SELENOMETHIONINE] reads more than 30 µM; that for `C[N+](C)(C)CCOC(=O)CCC(=O)OCC[N+](C)(C)C` [SUXAMETHONIUM], more than 30 µM.
`Cc1ccsc1C(=CCCN1CCC[C@@H](C(=O)O)C1)c1sccc1C` [TIAGABINE]: in [3], the AC50 was more than 30 µM.
The same measure, in the same setting: the value for `Cc1ccc(C(=O)c2ccc(CC(=O)O)n2C)cc1` [TOLMETIN] was more than 30 µM; that for `Cc1ccccc1C(=O)Nc1ccc(C(=O)N2CCCC(O)c3cc(Cl)ccc32)c(C)c1` (stereo unspecified) [TOLVAPTAN] was more than 30 µM.
On the same count and under the same terms, the value for `C[C@]12C=CC(=O)C=C1CC[C@H]1[C@@H]3C[C@@H](O)[C@](O)(C(=O)CO)[C@@]3(C)C[C@H](O)[C@@]12F` [TRIAMCINOLONE] was more than 30 µM.
On the same count and under the same terms, the value for `CC[C@]12CCCN3CCc4c(n(c5ccccc45)[C@@](O)(C(=O)OC)C1)[C@@H]32` [VINCAMINE] was more than 30 µM.
`CCC1=C[C@@H]2CN(C1)Cc1c([nH]c3ccccc13)[C@@](C(=O)OC)(c1cc3c(cc1OC)N(C)[C@H]1[C@@](O)(C(=O)OC)[C@H](OC(C)=O)[C@]4(CC)C=CCN5CC[C@]31[C@@H]54)C2` [VINORELBINE] had an AC50 in assay [3] of more than 30 µM.
`O=C1Cc2cc(CCN3CCN(c4nsc5ccccc45)CC3)c(Cl)cc2N1` [ZIPRASIDONE]: the AC50 in assay [1] was 0.229 µM; in assay [3], 11.2 µM; on Thromboxane A2 receptor, more than 30 µM; at B2 bradykinin receptor it was more than 30 µM; in assay [4], more than 30 µM; at Vasopressin V1a receptor, more than 10 µM. Also, the AC50 in assay [5] is more than 30 µM; on Adenosine receptor A2a, more than 30 µM; in [6], more than 30 µM; on Adenosine receptor A3 it was more than 30 µM; in assay [7] it was more than 10 µM.
